Assay results reported in PMC12527934 (Nature, 2025).
*1 amine or outer side, *2 acyl side, *3 side chain or, on linkers, in order; H or OH if unused. Where a SMILES comes first, the peptide text is derived from it. Bridges are numbered along the chain shown (N, C = ends). [ ]: non-standard residue; d: D form. The star is where a group is joined. X4 = CN([C@@H](Cc1cc(Cl)ccc1-c1cnn(C)c1)C(=O)[*:2])[*:1]; X5 = CN([C@@H](Cc1cc(Cl)nn1-c1ccccc1)C(=O)[*:2])[*:1]; cBuCO(3,3-F2-1-CF3) = O=C(C1(C(F)(F)F)CC(F)(F)C1)*; NMePhe(2,5-Cl2) = CN[C@@H](Cc1cc(Cl)ccc1Cl)C(=O)O; X2 = CCCN([C@@H](Cc1cc(Cl)ccc1Cl)C(=O)[*:2])[*:1]; Nle(6-morpholino) = N[C@@H](CCCCN1CCOCC1)C(=O)O; X6 = CN([C@H](Cc1cc(Cl)ccc1Cl)C(=O)[*:2])[*:1]; Pro(trans-4-F) = O=C(O)[C@@H]1C[C@@H](F)CN1; dPro(trans-4-F) = O=C(O)[C@H]1C[C@H](F)CN1; X3 = O=C([C@@H](c1cccnc1)C1CCCCC1)*; Gly(cPr) = N[C@H](C(=O)O)C1CC1; X1 = C[C@@](O)(C(=O)*)C(F)(F)F; Cba = N[C@@H](CC1CCC1)C(=O)O; NMeK = CN[C@@H](CCCCN)C(=O)O; dCba = N[C@H](CC1CCC1)C(=O)O; dNMeK = CN[C@H](CCCCN)C(=O)O; dNva = CCC[C@@H](N)C(=O)O; Ac3c = NC1(C(=O)O)CC1; Aib = CC(C)(N)C(=O)O

Legend:
[1] = test system: p-KNL1 in NCI-H1048 cells; test: Immunoblot of p-KNL1; type: cell-based, human
RPE1 cells = test: Cell-count dose–response assay; type: cell-based, human; details: RPE1, even at high doses
46 human SCLC cell lines = test: Cell Titer Glo proliferation assay, panel of 46 SCLC cell lines; type: cell-based; details: 4–8 days
[2] = test system: human peripheral blood CD34+ cells; type: cell-based; details: CD34+ haematopoietic stem and progenitor cells, even at high doses
NCI-H1048 cells [3] = test: Live-cell imaging of mitosis; type: cell-based, human; details: NCI-H1048 GFP–H2B, 20 nM
NCI-H1048 cells [4] = test: Cell-count dose–response assay; type: cell-based, human; details: for activity in proliferation, apoptosis and cell cycle assays: NCI-H1048
NCI-H69 xenografts = test: NCI-H69 cell line xenograft efficacy study; type: in vivo, mouse; details: 100 mg per kg daily i.v. 14 days
NCI-H1048 xenografts = test: NCI-H1048 cell line xenograft efficacy study; type: in vivo, mouse; details: 100 mg per kg daily i.v. 14 days
[5] = Body weight, NCI-H69 xenograft study; type: in vivo, mouse; details: 100 mg per kg daily 14 days
[6] = Body weight, NCI-H1048 xenograft study; type: in vivo, mouse; details: 100 mg per kg daily 14 days
NCI-H69 cells = test: Nocodazole synchronization, propidium iodide FACS; type: cell-based, human; details: NCI-H69, 60 ng ml−1, overnight

COc1ccc(Oc2cc(NCCC(F)(F)F)c3ncc(-c4ccc(C(=O)NC5CC5)c(C)c4)n3n2)c(F)c1F [BAY-1217389]
KNL1 phosphorylation and proliferation ([1]; 3 nM, NCI-H1048): blocked KNL1 phosphorylation without affecting proliferation

CC(C)C[C@@H]1NC(=O)[C@@H](N(C)C(=O)[C@H](CC2CCC2)NC(=O)[C@@H]2C[C@@H](F)CN2C(=O)C2(C(F)(F)F)CC(F)(F)C2)CCCCNC(=O)C2(CC2)NC(=O)[C@H](Cc2cc(Cl)ccc2Cl)N(C)C1=O [CIRc-004] ({cBuCO(3,3-F2-1-CF3)}-[Pro(trans-4-F)][Cba][NMeK]L[NMePhe(2,5-Cl2)][Ac3c]; lactam 3-C)
sensitivity of normal cells (mitotic arrest, apoptosis) (RPE1 cells): insensitive
sensitivity of 46 SCLC cell lines in anti-proliferation assays (46 human SCLC cell lines): Nearly all lines were highly sensitive
sensitivity of normal cells (mitotic arrest, apoptosis) [2]: insensitive
anaphase initiation (live-cell imaging) (NCI-H1048 cells [3]): blocked anaphase initiation

CC(C)C[C@H]1NC(=O)[C@H](N(C)C(=O)[C@@H](CC2CCC2)NC(=O)[C@H]2C[C@H](F)CN2C(=O)C2(C(F)(F)F)CC(F)(F)C2)CCCCNC(=O)C2(CC2)NC(=O)[C@@H](Cc2cc(Cl)ccc2Cl)N(C)C1=O [CIRc-005] ({cBuCO(3,3-F2-1-CF3)}-[dPro(trans-4-F)][dCba][dNMeK][dL][X6][Ac3c]; lactam 3-C)
effect on cellular proliferation (NCI-H1048 cells [4]; NCI-H1048, 200 nM): had no effect on cellular proliferation

CCC[C@H]1NC(=O)[C@H](Cc2cc(Cl)ccc2-c2cnn(C)c2)N(C)C(=O)[C@H](CC(C)C)NC(=O)[C@@H](N(C)C(=O)[C@H](CCCCN2CCOCC2)NC(=O)[C@@H](c2cccnc2)C2CCCCC2)CCCCNC1=O [CIRc-018] (X3-[Nle(6-morpholino)][NMeK]L[X4][dNva]; lactam 2-C)
activity in proliferation, apoptosis and cell cycle assays (NCI-H1048 cells [4]): lacked activity

CC(C)C[C@@H]1NC(=O)[C@@H](N(C)C(=O)[C@@H](NC(=O)[C@@H]2C[C@@H](F)CN2C(=O)C2(C(F)(F)F)CC(F)(F)C2)C2CC2)CCCCNC(=O)C(C)(C)NC(=O)[C@H](Cc2cc(Cl)nn2-c2ccccc2)N(C)C1=O [CIRc-019] ({cBuCO(3,3-F2-1-CF3)}-[Pro(trans-4-F)][Gly(cPr)][NMeK]L[X5][Aib]; lactam 3-C)
activity in proliferation, apoptosis and cell cycle assays (NCI-H1048 cells [4]): lacked activity

CCCN1C(=O)[C@H](CC(C)C)NC(=O)[C@@H](N(C)C(=O)[C@H](CC2CCC2)NC(=O)[C@@H]2C[C@@H](F)CN2C(=O)[C@@](C)(O)C(F)(F)F)CCCCNC(=O)C2(CC2)NC(=O)[C@@H]1Cc1cc(Cl)ccc1Cl [CIRc-028] (X1-[Pro(trans-4-F)][Cba][NMeK]L[X2][Ac3c]; lactam 3-C)
tumour response (NCI-H69 xenografts): induced tumour regressions
tumour response (NCI-H1048 xenografts): substantially inhibited growth
tolerability, body weight [5]: well tolerated without weight loss
tolerability, body weight [6]: well tolerated without weight loss

COCc1cc(C(=O)Nc2cc([C@H]3CC[C@@H](OC(=O)NC(C)C)C3)[nH]n2)n(C)n1 [PF-07104091]
SAC activation ([1]; NCI-H1048 cells, 24 h): did not activate the SAC

COC(=O)Nc1nc2ccc(C(=O)c3cccs3)cc2[nH]1 [nocodazole]
cells in mitotic arrest (NCI-H69 cells): around 90%
